{"source": "patent US20260001874A1", "about": "(priority 2022, published 2026)", "key": {"Shiga toxin Stx-1": {"system": "Shiga toxin Stx-1", "assay_type": "cell-based, E. coli", "conditions": "read-out: EC50 in vitro Stx1"}, "Shiga toxin Stx-2": {"system": "Shiga toxin Stx-2", "assay_type": "cell-based, E. coli", "conditions": "read-out: EC50 in vitro Stx2"}, "VacV-ANCHOR": {"system": "VacV-ANCHOR", "assay": "microbe, parasite or virus in culture", "assay_type": "cell-based, cowpox virus", "conditions": "Orthopoxvirus vaccinia, HeLa, read-out: EC50 in vitro VACV"}, "[1]": {"system": "myxomatosis-derived virus MYXV-T1-ANCHOR", "assay": "organism not typed", "assay_type": "cell-based", "conditions": "RK-13, read-out: EC50 in vitro MYXV"}, "[2]": {"conditions": "mouse, in vivo"}, "in vitro [3]": {"assay": "in vitro", "conditions": "human"}, "in vitro [4]": {"assay": "in vitro", "conditions": "rabbit"}, "[5]": {"assay": "Incubation with hepatic mouse microsomes, LC-MS-MS", "conditions": "5 μM, 45 minutes, 37° C."}, "[6]": {"assay": "Pharmacokinetics in Lipiodol/castor oil (formulation B) or DMSO/Lipiodol/castor oil (formulation C), oral or subcutaneous", "conditions": "33 mg/kg oral or subcutaneous, Lipiodol/castor oil 30%/70%"}, "RK13 cells": {"system": "RK13 cells", "conditions": "rabbit"}, "HeLa cells": {"system": "HeLa cells", "conditions": "human"}}}
{"smiles": "Cc1nc(-c2ccc(C3N(C)c4ccc(F)cc4C(=O)N3c3c(O)cccc3O)s2)cs1", "note": "(stereo not shown) [Compound 1, 3-(2,6-dihydroxyphenyl)-6-fluoro-1-methyl-2-(5-(2-methylthiazol-4-yl)thiophen-2-yl)-2,3-dihydroquinazolin-4(1H)-one]", "values": [{"measurement": "EC50", "setting": "Shiga toxin Stx-1", "result": 16, "unit": "nM"}, {"measurement": "EC50", "setting": "Shiga toxin Stx-2", "result": 17, "unit": "nM"}, {"measurement": "EC50", "setting": "VacV-ANCHOR", "result": 0.78, "unit": "nM"}, {"measurement": "EC50", "setting": "[1]", "result": 6, "unit": "nM"}, {"measurement": "concentration in brain", "setting": "[2]; female, BALB/c", "result": 1700, "unit": "nM"}, {"measurement": "concentration in colon", "setting": "[2]; female, BALB/c", "result": 800, "unit": "nM"}, {"measurement": "concentration in kidneys", "setting": "[2]; female, BALB/c", "result": 400, "unit": "nM"}, {"measurement": "concentration in liver", "setting": "[2]; female, BALB/c", "result": 600, "unit": "nM"}, {"measurement": "concentration in lungs", "setting": "[2]; female, BALB/c", "result": 500, "unit": "nM"}, {"measurement": "concentration in plasma", "setting": "[2]; female, BALB/c", "result": 700, "unit": "nM"}, {"measurement": "concentration in small intestine", "setting": "[2]; female, BALB/c", "result": 2100, "unit": "nM"}, {"measurement": "concentration in brain (metabolite section)", "setting": "[2]; female, BALB/c, sc, 33 mg/kg", "result": 1500, "unit": "nM"}, {"measurement": "concentration in colon (metabolite section)", "setting": "[2]; female, BALB/c, sc, 33 mg/kg", "result": "< 200", "unit": "nM"}, {"measurement": "concentration in kidney (metabolite section)", "setting": "[2]; female, BALB/c, sc, 33 mg/kg", "result": 500, "unit": "nM"}, {"measurement": "concentration in liver (metabolite section)", "setting": "[2]; female, BALB/c, sc, 33 mg/kg", "result": 1000, "unit": "nM"}, {"measurement": "concentration in lungs (metabolite section)", "setting": "[2]; female, BALB/c, sc, 33 mg/kg", "result": "< 200", "unit": "nM"}, {"measurement": "CC50", "setting": "in vitro [3]", "result": 57700, "unit": "nM"}, {"measurement": "CC50", "setting": "in vitro [4]", "result": 18900, "unit": "nM"}, {"measurement": "metabolism by hepatic microsomes in the presence of NADPH", "setting": "[5]", "result": "slowed metabolism relative to the other compounds"}, {"measurement": "pharmacokinetic properties (plasma exposure) compared with the other molecules tested", "setting": "[6]", "result": "best pharmacokinetic properties of all of the molecules tested"}]}
{"smiles": "Cc1nc(-c2ccc(C3N(C)c4ccc(F)cc4C(=O)N3c3ccccc3)s2)cs1", "note": "(stereo not shown) [Compound A]", "values": [{"measurement": "EC50", "setting": "Shiga toxin Stx-1", "result": 52, "unit": "nM"}, {"measurement": "EC50", "setting": "Shiga toxin Stx-2", "result": 60, "unit": "nM"}, {"measurement": "EC50", "setting": "VacV-ANCHOR", "result": 37.8, "unit": "nM"}, {"measurement": "EC50", "setting": "[1]", "result": 74.5, "unit": "nM"}, {"measurement": "CC50", "setting": "RK13 cells", "result": 3350, "unit": "nM"}, {"measurement": "CC50", "setting": "in vitro [3]", "result": "> 50000", "unit": "nM"}]}
{"smiles": "Cc1nc(-c2ccc(C3N(C)c4ccc(F)cc4C(=O)N3c3ccccc3O)s2)cs1", "note": "(stereo not shown) [Compound B]", "values": [{"measurement": "EC50", "setting": "Shiga toxin Stx-1", "result": 25, "unit": "nM"}, {"measurement": "EC50", "setting": "Shiga toxin Stx-2", "result": 22, "unit": "nM"}, {"measurement": "EC50", "setting": "VacV-ANCHOR", "result": 3.6, "unit": "nM"}, {"measurement": "EC50", "setting": "[1]", "result": 19, "unit": "nM"}, {"measurement": "CC50", "setting": "in vitro [3]", "result": 39900, "unit": "nM"}, {"measurement": "CC50", "setting": "in vitro [4]", "result": 14000, "unit": "nM"}]}
{"smiles": "Cc1nc(-c2ccc(C3N(C)c4ccc(F)cc4C(=O)N3c3cccc(O)c3)s2)cs1", "note": "(stereo not shown) [Compound C]", "values": [{"measurement": "EC50", "setting": "Shiga toxin Stx-1", "result": 62, "unit": "nM"}, {"measurement": "EC50", "setting": "Shiga toxin Stx-2", "result": 71, "unit": "nM"}, {"measurement": "EC50", "setting": "VacV-ANCHOR", "result": 32.2, "unit": "nM"}, {"measurement": "EC50", "setting": "[1]", "result": 85.8, "unit": "nM"}, {"measurement": "CC50", "setting": "in vitro [3]", "result": 29200, "unit": "nM"}, {"measurement": "CC50", "setting": "in vitro [4]", "result": 3510, "unit": "nM"}]}
{"smiles": "Cc1nc(-c2ccc(C3N(C)c4ccc(F)cc4C(=O)N3c3ccc(O)cc3)s2)cs1", "note": "(stereo not shown) [Compound D]", "values": [{"measurement": "EC50", "setting": "Shiga toxin Stx-1", "result": 483, "unit": "nM"}, {"measurement": "EC50", "setting": "VacV-ANCHOR", "result": 628, "unit": "nM"}, {"measurement": "EC50", "setting": "[1]", "result": 5800, "unit": "nM"}, {"measurement": "CC50", "setting": "HeLa cells", "result": 20400, "unit": "nM"}, {"measurement": "CC50", "setting": "RK13 cells", "result": 12900, "unit": "nM"}]}
{"smiles": "Cc1nc(-c2ccc(C3N(C)c4ccc(F)cc4C(=O)N3c3cccc(O)c3O)s2)cs1", "note": "(stereo not shown) [Compound E]", "values": [{"measurement": "EC50", "setting": "Shiga toxin Stx-1", "result": 32, "unit": "nM"}, {"measurement": "EC50", "setting": "Shiga toxin Stx-2", "result": 35, "unit": "nM"}, {"measurement": "EC50", "setting": "VacV-ANCHOR", "result": 4.8, "unit": "nM"}, {"measurement": "EC50", "setting": "[1]", "result": 11.5, "unit": "nM"}, {"measurement": "CC50", "setting": "in vitro [3]", "result": 8500, "unit": "nM"}, {"measurement": "CC50", "setting": "in vitro [4]", "result": 1300, "unit": "nM"}]}
{"smiles": "Cc1nc(-c2ccc(C3N(C)c4ccc(F)cc4C(=O)N3c3ccc(O)cc3O)s2)cs1", "note": "(stereo not shown) [Compound F]", "values": [{"measurement": "EC50", "setting": "Shiga toxin Stx-1", "result": 1500, "unit": "nM"}, {"measurement": "EC50", "setting": "VacV-ANCHOR", "result": 27.3, "unit": "nM"}, {"measurement": "CC50", "setting": "in vitro [3]", "result": 3600, "unit": "nM"}]}
{"smiles": "Cc1nc(-c2ccc(C3N(C)c4ccc(F)cc4C(=O)N3c3cc(O)ccc3O)s2)cs1", "note": "(stereo not shown) [Compound G]", "values": [{"measurement": "EC50", "setting": "Shiga toxin Stx-1", "result": 642, "unit": "nM"}, {"measurement": "EC50", "setting": "VacV-ANCHOR", "result": 19, "unit": "nM"}, {"measurement": "EC50", "setting": "[1]", "result": 237, "unit": "nM"}, {"measurement": "CC50", "setting": "in vitro [3]", "result": 36300, "unit": "nM"}, {"measurement": "CC50", "setting": "in vitro [4]", "result": 12600, "unit": "nM"}]}
{"smiles": "Cc1nc(-c2ccc(C3N(C)c4ccc(F)cc4C(=O)N3c3ccc(O)c(O)c3)s2)cs1", "note": "(stereo not shown) [Compound H]", "values": [{"measurement": "EC50", "setting": "Shiga toxin Stx-1", "result": 2500, "unit": "nM"}]}
{"smiles": "Cc1nc(-c2ccc(C3N(C)c4ccc(F)cc4C(=O)N3c3cc(O)cc(O)c3)s2)cs1", "note": "(stereo not shown) [Compound I]", "values": [{"measurement": "EC50", "setting": "Shiga toxin Stx-1", "result": "> 30000", "unit": "nM"}, {"measurement": "EC50", "setting": "VacV-ANCHOR", "result": 7300, "unit": "nM"}, {"measurement": "EC50", "setting": "[1]", "result": 9750, "unit": "nM"}, {"measurement": "CC50", "setting": "in vitro [3]", "result": 25900, "unit": "nM"}, {"measurement": "CC50", "setting": "in vitro [4]", "result": 20100, "unit": "nM"}]}
{"smiles": "Cc1nc(-c2ccc(C3N(C)c4ccc(F)cc4C(=O)N3c3ccccc3N)s2)cs1", "note": "(stereo not shown) [Compound J]", "values": [{"measurement": "EC50", "setting": "Shiga toxin Stx-1", "result": 21, "unit": "nM"}, {"measurement": "EC50", "setting": "Shiga toxin Stx-2", "result": 27, "unit": "nM"}, {"measurement": "EC50", "setting": "VacV-ANCHOR", "result": 1, "unit": "nM"}, {"measurement": "EC50", "setting": "[1]", "result": 1.44, "unit": "nM"}, {"measurement": "CC50", "setting": "RK13 cells", "result": 7460, "unit": "nM"}, {"measurement": "CC50", "setting": "in vitro [3]", "result": "> 50000", "unit": "nM"}]}
{"smiles": "CN1c2ccc(F)cc2C(=O)N(c2c(O)cccc2O)C1c1ccc(-c2csc(CO)n2)s1", "note": "(stereo not shown) [metabolite]", "values": [{"measurement": "presence in kidney, liver, colon, lungs and brain after treatment with compound 1", "setting": "[2]; sc, 33 mg/kg", "result": "identified in vivo"}]}
